Data taken from patent US20230310442A1, “POLY HYDROXY OLIGOMER COATED DOLUTEGRAVIR AQUASOMES AND METHOD THEREOF” (priority 2020, published 2023).

Legend:
[1] = Preformulation study: solubility of dolutegravir sodium in water; assay type: physicochemical; conditions: preformulation studies
Procedure: Preformulation studies of dolutegravir sodium were performed to know the physical appearance and organoleptic properties.

human plasma proteins = conditions: cited from earlier work
[2] = system: herpes simplex virus (HSV) infected vero cells; experiment: In vitro MTT antiviral assay; assay type: cell-based; conditions: 0.01 to 100 μ/mL
UGT1A1 = target: T1, UGT1A1 (Homo sapiens, UniProt P22309); conditions: cited from earlier work
T1 sequence (P22309 26-533): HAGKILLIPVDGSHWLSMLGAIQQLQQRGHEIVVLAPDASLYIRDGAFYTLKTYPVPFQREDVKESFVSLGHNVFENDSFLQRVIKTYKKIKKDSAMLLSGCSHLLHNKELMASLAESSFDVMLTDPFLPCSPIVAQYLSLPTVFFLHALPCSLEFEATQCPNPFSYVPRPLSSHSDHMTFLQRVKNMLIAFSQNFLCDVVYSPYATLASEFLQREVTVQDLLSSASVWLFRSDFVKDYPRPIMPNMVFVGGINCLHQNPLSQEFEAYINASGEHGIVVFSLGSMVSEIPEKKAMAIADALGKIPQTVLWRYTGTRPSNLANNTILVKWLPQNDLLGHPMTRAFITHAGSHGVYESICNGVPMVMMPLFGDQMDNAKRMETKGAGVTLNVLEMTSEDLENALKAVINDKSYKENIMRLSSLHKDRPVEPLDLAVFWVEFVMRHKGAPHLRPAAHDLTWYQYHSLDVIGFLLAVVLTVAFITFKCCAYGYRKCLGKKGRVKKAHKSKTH

[3] = cited from earlier work
[4] = In vitro drug dissolution, USP Type II apparatus; assay type: physicochemical
Procedure: In vitro drug dissolution studies 01 In vitro dissolution studies of the pure dolutegravir (PD) and its aquasomal formulations (F1 to F6) were carried out using USP-Type II dissolution apparatus. 900 ml of pH 6.8 phosphate buffer was used as dissolution media and temperature was maintained at 37° C.±0.5° C. with paddle rotation speed at 50 rpm. Aliquots of 5 ml were withdrawn at various intervals and were replaced with same quantity of fresh dissolution medium to maintain the sink condition. Samples were filtered through wattman filter paper and analysed UV—Vis spectrophotometrically at 259.80 nm. The dissolution experiments were conducted in triplicate and the cumulative percentage of drug release was calculated. […] Dissolution efficiency (DE) values were calculated as per Khan^1 and T50 (time taken for 50% dissolution) values were recorded from the dissolution profiles.
A comparative in vitro drug release study was performed in pH 6.8 phosphate buffer for pure dolutegravir sodium (PD) and all designed formulations (F1-F6), the data was shown in Table 7. The dissolution experiments were conducted in triplicate. Dissolution efficiency (DE5) values were calculated as per Khan^1. T50 (time taken for 50% dissolution) values were recorded from the dissolution profiles.
The dissolution data of formulations PD and dolutegravir aquasomes were fitted into mathematical models such as zero order, first order and Hixson Crowell models kinetics and the plots were shown in Table No: 8. The release kinetics of pure drug (PD) and dolutegravir aquasomes follows zero order as well as Hixson Crowell model because the values of regression coefficient obtained for zero order release profiles are higher as compared to first order kinetics. […] The cube root dissolution rate constant (KH) of Hixson Crowell values of PD is 0.124 and optimized formulation F6 is 0.713. During dissolution, the radius of the particle, mass of the particle was changed. […]

[5] = cited from earlier work; remark: listed apart in the source

solubility [1]: 1.6 µg/mL
T50 (time taken for 50% dissolution) [4]: 38.5 h
% of Dolutegravir Sodium Release ([4]; 0 hr, pH 6.8 phosphate buffer): 0%
% of Dolutegravir Sodium Release ([4]; 0.5 hr, pH 6.8 phosphate buffer): 7.38 ± 0.12%
% of Dolutegravir Sodium Release ([4]; 1 hr, pH 6.8 phosphate buffer): 13.45 ± 0.14%
% of Dolutegravir Sodium Release ([4]; 2 hr, pH 6.8 phosphate buffer): 15.27 ± 0.12%
% of Dolutegravir Sodium Release ([4]; 3 hr, pH 6.8 phosphate buffer): 15.79 ± 0.19%
% of Dolutegravir Sodium Release ([4]; 4 hr, pH 6.8 phosphate buffer): 16.92 ± 0.12%
% of Dolutegravir Sodium Release ([4]; 5 hr, pH 6.8 phosphate buffer): 17.82 ± 0.09%
% of Dolutegravir Sodium Release ([4]; 6 hr, pH 6.8 phosphate buffer): 18.33 ± 0.10%
% of Dolutegravir Sodium Release ([4]; 7 hr, pH 6.8 phosphate buffer): 20.13 ± 0.12%
% of Dolutegravir Sodium Release ([4]; 8 hr, pH 6.8 phosphate buffer): 20.27 ± 0.43%
% of Dolutegravir Sodium Release ([4]; 9 hr, pH 6.8 phosphate buffer): 22.27 ± 0.12%
% of Dolutegravir Sodium Release ([4]; 10 hr, pH 6.8 phosphate buffer): 22.45 ± 0.14%
% of Dolutegravir Sodium Release ([4]; 11 hr, pH 6.8 phosphate buffer): 25.23 ± 0.13%
% of Dolutegravir Sodium Release ([4]; 12 hr, pH 6.8 phosphate buffer): 26.45 ± 0.22%
DE5 (dissolution efficiency) ([4]; at 5 h, pH 6.8 phosphate buffer): 14.80%
Hixson Crowell (KH) ([4]; cube root dissolution rate constant): 0.124 mg^1/3/hr
First order (K1) ([4]; dissolution rate constant): 0.018 h⁻¹
Zero order (Ko) ([4]; dissolution rate constant): 1.566 mg/h
Correlation Coefficient Values (r) First order ([4]; drug release kinetics fit): 0.845
Correlation Coefficient Values (r) Hixson Crowell ([4]; drug release kinetics fit): 0.443
Correlation Coefficient Values (r) Zero order ([4]; drug release kinetics fit): 0.812
SMILES: C[C@@H]1CCO[C@H]2Cn3cc(C(=O)NCc4ccc(F)cc4F)c(=O)c(O)c3C(=O)N12 [PD, sodium (4R,12aS)-9-{[(2,4-difluorophenyl)methyl]carbamoyl}-4-methyl-6,8-dioxo-3,4,6,8,12,12a-hexahydro-2H-pyrido[1′, 2′:4,5]pyrazino[2,1-b][1,3]oxazin-7-olate]
protein bound to human plasma proteins (human plasma proteins): > 98.9%
IC50 [2]: 57.9 ± 4.6 µg/mL
primarily metabolized by (UGT1A1): UGT1A1
Solubility: soluble in water ([3]; at 25° C.): 3500 µg/mL
Particle Size ([3]; drug profile): 5 microns
Cmax ([5]; absorption): 7.97-14.70 μm
tmax ([5]; absorption): 0.5 to 2 h
Clearance ([5]; in vivo): 1 L/h
Half-life ([5]; in vivo): 14 h
drug eliminated from urine ([5]; in vivo): 32%
drug eliminated through feces ([5]; in vivo): 53%
